ChEMBL document CHEMBL4732126, “Design, synthesis, and biodistribution studies of new analogues of marine alkaloids: Potent in vitro and in vivo fungicidal agents against Candida spp” (Eur J Med Chem, 2021)
The source made the active and inactive calls. The calls are words filed in the database; no cut-off is given here.

Key:
Candida albicans [1] = test: Fungicidal activity against Candida albicans isolate 4 assessed as fungal killing incubated for 48 hrs followed by plating on SD agar plate; type: functional; settings: read-out: MFC99.9
Candida albicans [2] = test: In vivo antifungal activity in Swiss mouse infected with Candida albicans ATCC 10231 assessed as reduction in fungal load in liver at 1 mg/kg, ip administered at 2, 24 and 48 hrs post-infection and measured per gm of organ at 24 hrs post-last dose (reference value: 1.80); type: functional; settings: time 72 hrs
Candida albicans [3] = test: Fungicidal activity against Candida albicans isolate 13 assessed as fungal killing incubated for 48 hrs followed by plating on SD agar plate; type: functional; settings: read-out: MFC99.9
[4] = Toxicity in Swiss mouse assessed as relative liver weight at 10 mg/kg, ip measured after 24 hrs (reference value: 49.42 +/- 7.17 g); type: organism-based; settings: in vivo
[5] = Toxicity in Swiss mouse assessed as relative lung weight at 10 mg/kg, ip measured after 24 hrs (reference value: 6.35 +/- 0.68 g); type: organism-based; settings: in vivo
Candida albicans [6] = test: Fungicidal activity against Candida albicans isolate 10 assessed as fungal killing incubated for 48 hrs followed by plating on SD agar plate; type: functional; settings: read-out: MFC99.9
[7] = Toxicity in Swiss mouse infected with Candida albicans ATCC 10231 assessed as effect on liver at 10 mg/kg, ip administered at 2, 24 and 48 hrs post-infection and measured at 24 hrs after last dose by macroscopic analysis; type: organism-based; settings: in vivo, 72 h
Candida albicans [8] = test: Fungicidal activity against Candida albicans isolate 2 assessed as fungal killing incubated for 48 hrs followed by plating on SD agar plate; type: functional; settings: read-out: MFC99.9
[9] = Toxicity in Swiss mouse assessed as relative lung weight at 0.5 mg/kg, ip measured after 24 hrs (reference value: 6.35 +/- 0.68 g); type: organism-based; settings: in vivo
Candida albicans [10] = test: Fungicidal activity against Candida albicans ATCC 10231 assessed as reduction in fungal load at 7.8 ug/ml incubated for 4 hrs followed by inoculation on SD agar plate for 48 hrs by time-kill assay; type: functional; settings: dose 7.8 µg/ml; time 52 hrs
[11] = Toxicity in Swiss mouse assessed as relative heart weight at 10 mg/kg, ip measured after 24 hrs (reference value: 4.75 +/- 0.60 g); type: organism-based; settings: in vivo
[12] = Toxicity in Swiss mouse assessed as effect on heart at 0.5 to 10 mg/kg, ip measured after 24 hrs by macroscopic analysis; type: organism-based; settings: in vivo, dose 0.5-10 mg/kg
Candida albicans [13] = test: In vivo antifungal activity in Swiss mouse infected with Candida albicans ATCC 10231 assessed as reduction in fungal load in kidney at 1 mg/kg, ip administered at 2, 24 and 48 hrs post-infection and measured per gm of organ at 24 hrs post-last dose (reference value: 2.47); type: functional; settings: time 72 hrs
[14] = Toxicity in Swiss mouse assessed as body weight at 3 mg/kg, ip measured after 24 hrs (reference value: 36.25 +/- 0.31 g); type: organism-based; settings: in vivo
[15] = Toxicity in Swiss mouse assessed as body weight at 10 mg/kg, ip measured after 24 hrs (reference value: 36.25 +/- 0.31 g); type: organism-based; settings: in vivo
Candida albicans [16] = test: Antifungal activity against Candida albicans ATCC 10231 assessed as reduction in fungal growth incubated for 48 hrs in presence of ergosterol by broth microdilution method; type: functional
Nakaseomyces glabratus [17] = test: Disruption of cell membrane in Candida glabrata ATCC 2001 assessed as increase in intracellular leakage at MIC incubated for 24 hrs by UV spectrophotometric analysis; type: cell-based
Candida tropicalis = test: Antifungal activity against Candida tropicalis ATCC 28707 assessed as reduction in fungal growth incubated for 48 hrs in presence of sorbitol by broth microdilution method; type: functional
[18] = Toxicity in Swiss mouse assessed as relative spleen weight at 0.5 mg/kg, ip measured after 24 hrs (reference value: 4.02 +/- 0.59 g); type: organism-based; settings: in vivo
[19] = Toxicity in Swiss mouse assessed as effect on kidney at 0.5 to 10 mg/kg, ip measured after 24 hrs by macroscopic analysis; type: organism-based; settings: in vivo, dose 0.5-10 mg/kg
Candida albicans [20] = test: Fungicidal activity against Candida albicans isolate 7 assessed as fungal killing incubated for 48 hrs followed by plating on SD agar plate; type: functional; settings: read-out: MFC99.9
[21] = Toxicity in Swiss mouse assessed as effect on lung at 0.5 to 10 mg/kg, ip measured after 24 hrs by macroscopic analysis; type: organism-based; settings: in vivo, dose 0.5-10 mg/kg
Candida albicans [22] = test: Fungicidal activity against Candida albicans isolate 11 assessed as fungal killing incubated for 48 hrs followed by plating on SD agar plate; type: functional; settings: read-out: MFC99.9
Candida albicans [23] = test: Antifungal activity against Candida albicans isolate 4 assessed as reduction in fungal growth incubated for 48 hrs by broth microdilution method; type: functional
Candida albicans [24] = test: Fungicidal activity against Candida albicans isolate 6 assessed as fungal killing incubated for 48 hrs followed by plating on SD agar plate; type: functional; settings: read-out: MFC99.9
[25] = Toxicity in Swiss mouse assessed as relative heart weight at 0.5 mg/kg, ip measured after 24 hrs (reference value: 4.75 +/- 0.60 g); type: organism-based; settings: in vivo
[26] = Toxicity in Swiss mouse assessed as relative heart weight at 3 mg/kg, ip measured after 24 hrs (reference value: 4.75 +/- 0.60 g); type: organism-based; settings: in vivo
Nakaseomyces glabratus [27] = test: Antifungal activity against Candida glabrata ATCC 2001 assessed as reduction in fungal growth incubated for 48 hrs in presence of sorbitol by broth microdilution method; type: functional
Candida albicans [28] = test: Antibiofilm activity against Candida albicans ATCC 10231 assessed as reduction in mature biofilm incubated for 48 hrs by crystal violet staining based spectrophotometric analysis relative to control; type: functional, organism-based; settings: dose 0.48-125 µg/ml
Candida albicans [29] = test: Antifungal activity against Candida albicans isolate 13 assessed as reduction in fungal growth incubated for 48 hrs by broth microdilution method; type: functional
[30] = Toxicity in Swiss mouse assessed as relative kidney weight at 3 mg/kg, ip measured after 24 hrs (reference value: 14.91 +/- 0.99 g); type: organism-based; settings: in vivo
[31] = Toxicity in Swiss mouse assessed as relative lung weight at 3 mg/kg, ip measured after 24 hrs (reference value: 6.35 +/- 0.68 g); type: organism-based; settings: in vivo
Pichia kudriavzevii = test: Antifungal activity against Candida krusei ATCC 34135 assessed as reduction in fungal growth incubated for 48 hrs in presence of sorbitol by broth microdilution method; type: functional
[32] = Toxicity in Swiss mouse assessed as relative liver weight at 0.5 mg/kg, ip measured after 24 hrs (reference value: 49.42 +/- 7.17 g); type: organism-based; settings: in vivo
Nakaseomyces glabratus [33] = test: Antifungal activity against Candida glabrata ATCC 2001 assessed as reduction in fungal growth incubated for 48 hrs in presence of ergosterol by broth microdilution method; type: functional
Candida albicans [34] = test: Antifungal activity against Candida albicans isolate 12 assessed as reduction in fungal growth incubated for 48 hrs by broth microdilution method; type: functional
Candida albicans [35] = test: Fungicidal activity against Candida albicans ATCC 10231 assessed as reduction in fungal load at 15.6 ug/ml incubated for 4 hrs followed by inoculation on SD agar plate for 48 hrs by time-kill assay; type: functional; settings: dose 15.6 µg/ml; time 52 hrs

In the case of `[Cl-].[N-]=[N+]=NCCCCCCCCCCCCOCCCc1ccc[n+](Cc2ccccc2)c1`, the MFC (Candida albicans [1]) is reported as 1.95 µg/mL, the Activity (Candida albicans [2]) is reported as 1.78 log10CFU and the MFC (Candida albicans [3]) is reported as 7.8 µg/mL. It also gave an Activity [4] of 43.58 g, an Activity [5] of 6.01 g and an MFC (Candida albicans [6]) of 31.2 µg/mL. The Activity [7] was “Non-Toxic”, the MFC (Candida albicans [8]) was 7.8 µg/mL and the Activity [9] was 5.57 g. The “log(activity)” value (Candida albicans [10]) was 3, the Activity [11] was 4.95 g and the Activity [12] was “Non-Toxic”. It also gave an Activity (Candida albicans [13]) of 0 log10CFU, an Activity [14] of 38.87 g and an Activity [15] of 31.37 g. For the same molecule, the MIC (Candida albicans [16]) was 7.8 µg/mL, the Activity (Nakaseomyces glabratus [17]) was “Active” and the MIC (Candida tropicalis) was 7.8 µg/mL. The Activity [18] was 3.85 g, the Activity [19] was “Non-Toxic” and the MFC (Candida albicans [20]) was 3.9 µg/mL. The Activity [21] was “Non-Toxic”, the MFC (Candida albicans [22]) was 7.8 µg/mL and the MIC (Candida albicans [23]) was 1.95 µg/mL. It also gave an MFC (Candida albicans [24]) of 31.2 µg/mL, an Activity [25] of 5.75 g and an Activity [26] of 4.45 g. The MIC (Nakaseomyces glabratus [27]) was 7.8 µg/mL, the Activity (Candida albicans [28]) was “Dose-dependent effect” and the MIC (Candida albicans [29]) was 7.8 µg/mL. The Activity [30] was 14.73 g, the Activity [31] was 5.19 g and the MIC (Pichia kudriavzevii) was 3.9 µg/mL. For the same molecule, the Activity [32] was 43.25 g, the MIC (Nakaseomyces glabratus [33]) was 7.8 µg/mL and the MIC (Candida albicans [34]) was 7.8 µg/mL. The “log(activity)” value (Candida albicans [35]) was 2.
